Results reported in ChEMBL document CHEMBL1255467, “Comparative in vitro antimicrobial activities of torezolid (TR-700), the active moiety of a new oxazolidinone, torezolid phosphate (TR-701), determination of tentative disk diffusion interpretive criteria, and quality control ranges” (2010).

Assays:
Staphylococcus aureus [1] = test: Antimicrobial activity against methicillin-resistant Staphylococcus aureus by broth dilution method; type: functional; details: Staphylococcus aureus
Staphylococcus aureus [2] = test: Antimicrobial activity against Staphylococcus aureus by broth dilution method; type: functional
Streptococcus pneumoniae [3] = test: Antimicrobial activity against penicillin-susceptible Streptococcus pneumoniae by broth dilution method; type: functional
Listeria monocytogenes = test: Antimicrobial activity against Listeria monocytogenes by broth dilution method; type: functional
Haemophilus influenzae [4] = test: Antimicrobial activity against beta-lactamase negative Haemophilus influenzae by broth dilution method; type: functional
Staphylococcus aureus [5] = test: Antimicrobial activity against vancomycin-nonsusceptible Staphylococcus aureus by broth dilution method; type: functional
Streptococcus sp = test: Antimicrobial activity against streptococcal sp. by broth dilution method
Staphylococcus sp. [6] = test: Antimicrobial activity against Staphylococcus sp. by broth dilution method; type: functional
Enterococcus faecalis [7] = test: Antimicrobial activity against vancomycin-susceptible Enterococcus faecalis by broth dilution method; type: functional
Staphylococcus sp. [8] = test: Antimicrobial activity against methicillin-susceptible coagulase-negative Staphylococcus by broth dilution method; type: functional
Streptococcus pneumoniae [9] = test: Antimicrobial activity against Streptococcus pneumoniae by broth dilution method; type: functional
Corynebacterium jeikeium = test: Antimicrobial activity against Corynebacterium jeikeium by broth dilution method; type: functional
Streptococcus viridans = test: Antimicrobial activity against Streptococcus viridans by broth dilution method; type: functional
Haemophilus influenzae [10] = test: Antimicrobial activity against Haemophilus influenzae by broth dilution method; type: functional
Moraxella catarrhalis = test: Antimicrobial activity against Moraxella catarrhalis by broth dilution method; type: functional
Streptococcus pneumoniae [11] = test: Antimicrobial activity against penicillin-intermediate Streptococcus pneumoniae by broth dilution method; type: functional
Streptococcus pneumoniae [12] = test: Antimicrobial activity against penicillin-resistant Streptococcus pneumoniae by broth dilution method; type: functional
Staphylococcus aureus [13] = test: Antimicrobial activity against methicillin-susceptible Staphylococcus aureus by broth dilution method; type: functional
Enterococcus faecium [14] = test: Antimicrobial activity against vancomycin-resistant Enterococcus faecium by broth dilution method; type: functional
Haemophilus influenzae [15] = test: Antimicrobial activity against beta-lactamase positive Haemophilus influenzae by broth dilution method; type: functional; details: for MIC90: read-out: MIC90
Haemophilus influenzae [16] = test: Antimicrobial activity against ampicillin-nonsusceptible beta-lactamase negative Haemophilus influenzae by broth dilution method; type: functional
Enterococcus faecium [17] = test: Antimicrobial activity against vancomycin-susceptible Enterococcus faecium by broth dilution method; type: functional
Staphylococcus sp. [18] = test: Antimicrobial activity against methicillin-resistant coagulase-negative Staphylococcus by broth dilution method; type: functional
Enterococcus sp. = test: Antimicrobial activity against Enterococcus by broth dilution method; type: functional
Enterococcus faecalis [19] = test: Antimicrobial activity against vancomycin-resistant Enterococcus faecalis by broth dilution method; type: functional
Staphylococcus aureus [20] = test: Antimicrobial activity against linezolid-resistant Staphylococcus aureus by broth dilution method; type: functional

CO/N=C(\C(=O)N[C@@H]1C(=O)N2C(C(=O)O)=C(COC(C)=O)CS[C@H]12)c1csc(N)n1 [CEFOTAXIME]
0.03 µg/mL: MIC90 (Streptococcus pneumoniae [3]; Streptococcus pneumoniae) | MIC50 (Streptococcus sp; Streptococcus sp.)
> 8 µg/mL: MIC50 (Staphylococcus aureus [2]; Staphylococcus aureus)
0.015 µg/mL: MIC (Streptococcus pneumoniae [3]; Streptococcus pneumoniae) | MIC50 (Streptococcus pneumoniae [3]; Streptococcus pneumoniae) | MIC90 (Haemophilus influenzae [4]; Haemophilus influenzae) | MIC50 (Haemophilus influenzae [10]; Haemophilus influenzae) | MIC50 (Haemophilus influenzae [15]; Haemophilus influenzae) | MIC90 (Haemophilus influenzae [15]; Haemophilus influenzae)
0.5 µg/mL: MIC50 (Staphylococcus sp. [8]; Staphylococcus sp.) | MIC90 (Streptococcus viridans) | MIC90 (Haemophilus influenzae [10]; Haemophilus influenzae) | MIC90 (Streptococcus pneumoniae [11]; Streptococcus pneumoniae) | MIC50 (Haemophilus influenzae [16]; Haemophilus influenzae) | MIC90 (Haemophilus influenzae [16]; Haemophilus influenzae)
16 µg/mL: MIC50 (Staphylococcus aureus [1])
0.008 µg/mL: MIC (Haemophilus influenzae [4]; Haemophilus influenzae) | MIC50 (Haemophilus influenzae [4]; Haemophilus influenzae)
4 µg/mL: MIC50 (Staphylococcus sp. [6]; Staphylococcus sp.)
0.25 µg/mL: MIC50 (Moraxella catarrhalis)
> 64 µg/mL: MIC90 (Staphylococcus aureus [2]; Staphylococcus aureus) | MIC50 (Staphylococcus aureus [5]; Staphylococcus aureus) | MIC90 (Staphylococcus aureus [5]; Staphylococcus aureus) | MIC90 (Staphylococcus sp. [6]; Staphylococcus sp.) | MIC50 (Enterococcus faecalis [7]; Enterococcus faecalis) | MIC90 (Enterococcus faecalis [7]; Enterococcus faecalis) | MIC (Enterococcus faecium [14]) | MIC50 (Enterococcus faecium [17]; Enterococcus faecium) | MIC90 (Enterococcus faecium [17]; Enterococcus faecium) | MIC50 (Enterococcus sp.; Enterococcus sp.) | MIC90 (Enterococcus sp.; Enterococcus sp.)
8 µg/mL: MIC90 (Streptococcus pneumoniae [12]) | MIC50 (Staphylococcus sp. [18])
0.12 µg/mL: MIC50 (Streptococcus pneumoniae [9]; Streptococcus pneumoniae) | MIC50 (Streptococcus viridans) | MIC50 (Streptococcus pneumoniae [11]; Streptococcus pneumoniae)
32 µg/mL: MIC50 (Listeria monocytogenes) | MIC90 (Listeria monocytogenes) | MIC50 (Corynebacterium jeikeium) | MIC90 (Corynebacterium jeikeium)
2 µg/mL: MIC90 (Staphylococcus sp. [8]; Staphylococcus sp.) | MIC90 (Streptococcus pneumoniae [9]; Streptococcus pneumoniae) | MIC50 (Staphylococcus aureus [13]; Staphylococcus aureus) | MIC90 (Staphylococcus aureus [13]; Staphylococcus aureus)
1 µg/mL: MIC90 (Streptococcus sp; Streptococcus sp.) | MIC90 (Moraxella catarrhalis) | MIC50 (Streptococcus pneumoniae [12])

CC(=O)NC[C@H]1CN(c2ccc(N3CCOCC3)c(F)c2)C(=O)O1 [LINEZOLID]
1 µg/mL: MIC50 (Streptococcus pneumoniae [3]; Streptococcus pneumoniae) | MIC50 (Streptococcus sp; Streptococcus sp.) | MIC50 (Staphylococcus sp. [8]; Staphylococcus sp.) | MIC50 (Streptococcus pneumoniae [9]; Streptococcus pneumoniae) | MIC50 (Corynebacterium jeikeium) | MIC90 (Corynebacterium jeikeium) | MIC50 (Streptococcus pneumoniae [11]; Streptococcus pneumoniae) | MIC50 (Streptococcus pneumoniae [12]) | MIC50 (Staphylococcus sp. [18])
> 2 µg/mL: MBC (Staphylococcus aureus [2]; Staphylococcus aureus) | MBC (Streptococcus pneumoniae [3]; Streptococcus pneumoniae) | MBC (Streptococcus sp; Streptococcus sp.) | MBC (Staphylococcus sp. [6]; Staphylococcus sp.) | MBC (Staphylococcus sp. [8]; Staphylococcus sp.) | MBC (Streptococcus pneumoniae [9]; Streptococcus pneumoniae) | MBC (Streptococcus pneumoniae [11]; Streptococcus pneumoniae)
>8 µg/mL: MBC90 (Staphylococcus aureus [2]) | MBC50 (Haemophilus influenzae [4]) | MBC90 (Haemophilus influenzae [4]) | MBC90 (Streptococcus sp) | MBC90 (Staphylococcus sp. [6]) | MBC50 (Enterococcus faecalis [7]) | MBC90 (Enterococcus faecalis [7]) | MBC50 (Staphylococcus sp. [8]) | MBC90 (Staphylococcus sp. [8]) | MBC50 (Haemophilus influenzae [10]) | MBC90 (Haemophilus influenzae [10]) | MBC50 (Staphylococcus aureus [13]) | MBC90 (Staphylococcus aureus [13]) | MBC50 (Haemophilus influenzae [15]) | MBC90 (Haemophilus influenzae [15]) | MBC50 (Haemophilus influenzae [16]) | MBC90 (Haemophilus influenzae [16]) | MBC50 (Enterococcus faecium [17]) | MBC90 (Enterococcus faecium [17]) | MBC50 (Enterococcus sp.) | MBC90 (Enterococcus sp.)
> 4 µg/mL: MBC (Staphylococcus aureus [13]; Staphylococcus aureus) | MBC (Enterococcus faecium [14]) | MBC (Enterococcus sp.; Enterococcus sp.)
4 µg/mL: MIC90 (Staphylococcus aureus [1]) | MBC50 (Streptococcus pneumoniae [3]) | MBC90 (Staphylococcus aureus [5]) | MIC90 (Staphylococcus aureus [5]; Staphylococcus aureus) | MBC50 (Streptococcus pneumoniae [9]) | MBC50 (Streptococcus pneumoniae [11]) | MBC (Streptococcus pneumoniae [12]) | MIC90 (Enterococcus faecium [14]) | MIC90 (Staphylococcus sp. [18])
8 µg/mL: MBC50 (Staphylococcus aureus [2]) | MBC90 (Streptococcus pneumoniae [3]) | MBC50 (Streptococcus sp) | MBC50 (Staphylococcus sp. [6]) | MBC90 (Streptococcus pneumoniae [9]) | MIC (Moraxella catarrhalis) | MIC50 (Moraxella catarrhalis) | MIC90 (Moraxella catarrhalis) | MBC90 (Streptococcus pneumoniae [11])
> 8 µg/mL: MBC (Haemophilus influenzae [4]; Haemophilus influenzae) | MIC50 (Haemophilus influenzae [4]; Haemophilus influenzae) | MIC90 (Haemophilus influenzae [4]; Haemophilus influenzae) | MBC (Enterococcus faecalis [7]; Enterococcus faecalis) | MBC (Staphylococcus aureus [20]) | MIC50 (Staphylococcus aureus [20]) | MIC90 (Staphylococcus aureus [20]) | MBC (Haemophilus influenzae [10]; Haemophilus influenzae) | MIC50 (Haemophilus influenzae [10]; Haemophilus influenzae) | MIC90 (Haemophilus influenzae [10]; Haemophilus influenzae) | MBC (Haemophilus influenzae [15]; Haemophilus influenzae) | MIC (Haemophilus influenzae [15]; Haemophilus influenzae) | MIC50 (Haemophilus influenzae [15]; Haemophilus influenzae) | MIC90 (Haemophilus influenzae [15]; Haemophilus influenzae) | MBC (Haemophilus influenzae [16]; Haemophilus influenzae) | MIC (Haemophilus influenzae [16]; Haemophilus influenzae) | MIC50 (Haemophilus influenzae [16]; Haemophilus influenzae) | MIC90 (Haemophilus influenzae [16]; Haemophilus influenzae) | MBC (Enterococcus faecium [17]; Enterococcus faecium) | MBC (Staphylococcus sp. [18])
2 µg/mL: MIC50 (Staphylococcus aureus [1]) | MIC50 (Staphylococcus aureus [2]; Staphylococcus aureus) | MIC90 (Staphylococcus aureus [2]; Staphylococcus aureus) | MIC90 (Streptococcus pneumoniae [3]; Streptococcus pneumoniae) | MIC (Listeria monocytogenes) | MIC50 (Listeria monocytogenes) | MIC90 (Listeria monocytogenes) | MBC50 (Staphylococcus aureus [5]) | MBC (Staphylococcus aureus [5]; Staphylococcus aureus) | MIC50 (Staphylococcus aureus [5]; Staphylococcus aureus) | MIC90 (Streptococcus sp; Streptococcus sp.) | MIC50 (Enterococcus faecalis [19]) | MIC90 (Enterococcus faecalis [19]) | MIC50 (Staphylococcus sp. [6]; Staphylococcus sp.) | MIC90 (Staphylococcus sp. [6]; Staphylococcus sp.) | MIC50 (Enterococcus faecalis [7]; Enterococcus faecalis) | MIC90 (Enterococcus faecalis [7]; Enterococcus faecalis) | MIC90 (Staphylococcus sp. [8]; Staphylococcus sp.) | MIC90 (Streptococcus pneumoniae [9]; Streptococcus pneumoniae) | MIC50 (Streptococcus viridans) | MIC90 (Streptococcus viridans) | MIC90 (Streptococcus pneumoniae [11]; Streptococcus pneumoniae) | MIC90 (Streptococcus pneumoniae [12]) | MIC50 (Staphylococcus aureus [13]; Staphylococcus aureus) | MIC90 (Staphylococcus aureus [13]; Staphylococcus aureus) | MIC50 (Enterococcus faecium [14]) | MIC (Enterococcus faecium [17]; Enterococcus faecium) | MIC50 (Enterococcus faecium [17]; Enterococcus faecium) | MIC90 (Enterococcus faecium [17]; Enterococcus faecium) | MIC50 (Enterococcus sp.; Enterococcus sp.) | MIC90 (Enterococcus sp.; Enterococcus sp.)
